Source: PMC12992107 (Journal of medicinal chemistry, 2024)
Where two headings read alike, the source gives them in different places. Marks after values point to notes of the source that are not given here.

Legend:
HeLa cells = settings: read-out: HeLa IC50 (n1; n2); previously published; cited from earlier work
Plasma stability = assay type: in vitro ADME, human
HEK293 cells = settings: read-out: HEK293 IC50 (n1; n2); previously published; cited from earlier work
P. falciparum strain 3D7 = experiment: In vitro parasite reduction ratio; assay type: cell-based, Plasmodium falciparum; settings: 10-fold IC50; 28 days recovery in drug-free medium
Plasmodium berghei [1] = settings: previously published, cited from earlier work
[2] = Plasma protein binding, standard equilibrium dialysis assay; assay type: in vitro ADME
P. falciparum isolates = experiment: Ex vivo growth inhibition assay of clinical isolates; assay type: cell-based; settings: Plasmodium falciparum
[3] = Chemical stability in aqueous solution; assay type: physicochemical; settings: phosphate buffer pH 7.4, room temperature, over 24 h, n = 3
[4] = Snapshot pharmacokinetics; assay type: in vivo; settings: P. berghei mice, single oral administration of 3, 10 and 30 mg/kg
[5] = test system: chloroquine-sensitive and chloroquine-resistant P. falciparum strains; experiment: Initial antiplasmodial in vitro assessment; assay type: cell-based; settings: Plasmodium falciparum, read-out: IC50 (range over strains)
[6] = Plasma protein binding, dilution method
Plasmodium berghei [7] = experiment: Standard four-day Peters test in P. berghei-infected mice; settings: for cured: parasite-free mice on day 30
[8] = Calculation of hepatic clearance and hepatic extraction ratio; settings: calculated from in vitro assays
P. falciparum Dd2 Polδ = experiment: Single-step resistance selection assay; assay type: cell-based, Plasmodium falciparum
RF12 (PH-1263-C) = experiment: microbe, parasite or virus in culture; assay type: cell-based; settings: Plasmodium falciparum, 72 h, read-out: IC50, RF12 (PH-1263-C)
[9] = Microsomal binding, equilibrium dialysis; assay type: in vitro ADME; settings: human, human liver microsomes, microsomal binding (fraction bound), 1 μM in 0.5 mg/mL HLMs
Pf NF54 = experiment: 72 h [3H]hypoxanthine incorporation assay; assay type: cell-based; settings: Plasmodium falciparum, NF54, 72 h
Pf Dd2 = experiment: Antiplasmodial in vitro activity, HRP2 ELISA; assay type: cell-based; settings: Plasmodium falciparum, DD2, read-out: Pf Dd2 IC50 ± SD
[10] = cited from earlier work
[11] = cited from earlier work; remark: listed apart in the source

In the case of COc1ccc(/N=C(\N)CC(O)c2cc3c(F)cc(F)cc3c3cc(C(F)(F)F)ccc23)cc1 (centres unmarked) [1 (TKK129)], the IC50 (HeLa cells) is listed as 46100 nM, the plasma stability (Plasma stability; at 37 °C, time without decrease) is listed as 24 h at 37 °C and the IC50 (HEK293 cells) is listed as 36800 nM. For the same molecule, the “exposure time reducing the number of viable parasites to baseline” value (shortened to “exposure time reducing the number”) (P. falciparum strain 3D7) was ≤ 24 h, the MSD (Plasmodium berghei [1]; oral 4 × 3 mg/kg) was “euthanized” and the cured (Plasmodium berghei [1]; oral 4 × 3 mg/kg) was 0/3. For the same molecule, the cured (Plasmodium berghei [1]; oral 4 × 10 mg/kg) was 0/3, the cured (Plasmodium berghei [1]; oral 4 × 30 mg/kg) was 1/3 and the cured (Plasmodium berghei [1]; oral 4 × 50 mg/kg) was 2/3. For the same molecule, the fraction unbound at 24 h, 25 ng/mL [2] was < 0.01.

For Cl.N=C(CC(O)c1cc2c(F)cc(F)cc2c2cc(C(F)(F)F)ccc12)Nc1ccc(F)cc1 (centres unmarked) [2 (TKK130), (Z)-3-(1,3-Difluoro-6-(trifluoromethyl)phenanthrene-9-yl)-N′-(4-fluorophenyl)-3-hydroxypropanimidamid Hydrochlorid], the IC50 (P. falciparum isolates; read-out: max IC50) was 25.1 nM, the IC50 (P. falciparum isolates; read-out: min IC50) was 1.4 nM and the chemical stability [3] was > 90%. The “time at which maximum concentration was reached” value [4] was 4 h, the IC50 [5] was 2 to 12 nM and the fraction unbound at 24 h, 25 ng/mL ([6]; plasma) was 0.004. For the same molecule, the half-life at 25 ng/mL (Plasma stability; human, plasma) was 67 h, the “signs of toxicity during the in vivo studies” value (Plasmodium berghei [7]; mice, oral dosing) was “no obvious signs of toxicity” and the cured (Plasmodium berghei [7]; oral 4 × 3 mg/kg) was 0/3. For the same molecule, the cured (Plasmodium berghei [7]; oral 4 × 10 mg/kg) was 1/3, the cured (Plasmodium berghei [7]; oral 4 × 30 mg/kg) was 3/3 and the cured (Plasmodium berghei [7]; oral 4 × 50 mg/kg) was 3/3. For the same molecule, the hepatic extraction ratio [8] was 0.17, the hepatic clearance ([8]; hepatic blood flow 1500 mL/min) was 0.25 L/min and the “day on which treated cultures were clear” value (P. falciparum Dd2 Polδ; 9 nM (3-fold IC50), inocula 2 × 10^7 and 2 × 10^9) was 4 days. The “parasite growth after selection” value (P. falciparum Dd2 Polδ; 9 nM, inocula 2 × 10^7 and 2 × 10^9, 60 days of recovery time) was “no subsequent parasite growth could be observed”, the IC50 (RF12 (PH-1263-C)) was 4 nM and the “exposure time reducing the number” value (P. falciparum strain 3D7) was ≤ 24 h. For the same molecule, the fraction unbound at 24 h, 1 μM [9] was 0.026 and the IC50 (Pf NF54; read-out: IC50, NF54) was 12 nM.

With C[C@@H]1CC[C@H]2[C@@H](C)C(=O)O[C@@H]3O[C@@]4(C)CC[C@@H]1[C@]32OO4 [AS, Artemisinin, reference compound] the cured (Plasmodium berghei [7]; oral 4 × 30 mg/kg) was 0/10.

In the case of CCN(CC)CCCC(C)Nc1ccnc2cc(Cl)ccc12 (centres unmarked) [CQ, Chloroquine], the cured (Plasmodium berghei [7]; oral 4 × 30 mg/kg) is reported as 0/10, the IC50 (Pf Dd2) is reported as 240 ± 130 nM and the IC50 (Pf NF54; read-out: IC50, NF54) is reported as 11 nM. The IC50 (Pf NF54; read-out: Pf NF54 IC50 ± SD) was 12 ± 1 nM.

For Cc1cc(Nc2ccc(S(F)(F)(F)(F)F)cc2)n2nc(C(C)(F)F)nc2n1 [DSM265, reference compound], the “day of recrudescence of parasites” value (P. falciparum Dd2 Polδ; 12 nM (3-fold IC50), inoculum 2 × 10^7 per flask, all three replicate flasks) was 16 days.

In the case of CCCCN(CCCC)CCC(O)c1cc2c(Cl)cc(Cl)cc2c2cc(C(F)(F)F)ccc12 (centres unmarked) [Hf, Halofantrine], the “microsomal stability (60 min), Clint” value [10] is listed as “Clint = 26.9 μL/min/mg^d” and the plasma protein binding ([11]; plasma) is listed as >99^d %.

In the case of CCCCN(CCCC)CC(O)c1cc(Cl)cc2c1-c1ccc(Cl)cc1/C2=C/c1ccc(Cl)cc1 (centres unmarked) [LUM, Lumefantrine], the cured (Plasmodium berghei [7]; oral 4 × 30 mg/kg) is listed as 3/3, the “microsomal stability (60 min), Clint” value [10] is listed as “Clint = <7 μL/min/mg^d” and the plasma protein binding [11] is listed as >99^d %.

For O=C1C(O)=C([C@H]2CC[C@H](c3ccc(Cl)cc3)CC2)C(=O)c2ccccc21 [atovaquone, reference compound], the “exposure time reducing the number” value (P. falciparum strain 3D7) was 120 h.

For CCC(C)n1ncn(-c2ccc(N3CCN(c4ccc(OCC5COC(Cn6cncn6)(c6ccc(Cl)cc6Cl)O5)cc4)CC3)cc2)c1=O (centres unmarked) [itraconazole, reference compound], the fraction unbound at 24 h, 25 ng/mL ([6]; plasma diluted 1:10 or 1:20 in 0.9% saline) was 0.006.

For CCc1nc(N)nc(N)c1-c1ccc(Cl)cc1 [pyrimethamine, reference compound], the “exposure time reducing the number” value (P. falciparum strain 3D7) was 72 h.
